Experimental data reported in the supplement of paper PMC5908809.

Tests used:
[1] = system: normal NK cells expanded with K562-aAPC; assay: percent inhibition of viability; higher = more inhibition; conditions: 72 h, IL-2 2.5 ng/mL
Experimental: (§1)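 Drug sensitivity and resistance testing on K562-aAPC-expanded normal NK cells: 5 concentrations (10-fold steps over a 10,000-fold range), 72 h at 37 °C, viability by CellTiter-Glo normalised to DMSO and benzethonium chloride controls; DSS from the fitted curve.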

[2] = system: DERL-7 (IL-2 2.5 ng/mL); assay: as above; conditions: 72 h
[3] = system: IMC-1 (IL-2 20 ng/mL); assay: as above; conditions: 72 h
[4] = system: KAI3 (IL-2 2.5 ng/mL); assay: as above; conditions: 72 h
[5] = system: KHYG-1 (IL-2 2.5 ng/mL); assay: as above; conditions: 72 h
[6] = system: NK-92 (IL-2 2.5 ng/mL); assay: as above; conditions: 72 h
[7] = system: NK-YS (IL-2 2.5 ng/mL); assay: as above; conditions: 72 h
[8] = system: NKL (IL-2 2.5 ng/mL); assay: as above; conditions: 72 h
[9] = system: SNK-6 (IL-2 2.5 ng/mL); assay: as above; conditions: 72 h
[10] = system: YT (IL-2 2.5 ng/mL); assay: as above; conditions: 72 h
[11] = system: normal primary NK cells, pool 1 (3 donors) (IL-2 2.5 ng/mL); assay: as above; conditions: 72 h
[12] = system: normal primary NK cells, pool 1 (3 donors), resting (IL-2 0 ng/mL); assay: as above; conditions: 72 h
[13] = system: normal primary NK cells, pool 2 (3 donors) (IL-2 2.5 ng/mL); assay: as above; conditions: 72 h
[14] = system: normal primary NK cells, pool 3 (3 donors) (IL-2 2.5 ng/mL); assay: as above; conditions: 72 h
[15] = system: normal NK cells expanded with K562-aAPC; assay: drug sensitivity score (DSS) (DSS units); higher = more sensitive; extreme values may be limits of the assay; conditions: 72 h; IL-2 2.5 ng/mL
Experimental: as §1

[16] = system: DERL-7 (IL-2 2.5 ng/mL); assay: as above; conditions: 72 h
[17] = system: IMC-1 (IL-2 20 ng/mL); assay: as above; conditions: 72 h
[18] = system: KAI3 (IL-2 2.5 ng/mL); assay: as above; conditions: 72 h
[19] = system: KHYG-1 (IL-2 2.5 ng/mL); assay: as above; conditions: 72 h
[20] = system: NK-92 (IL-2 2.5 ng/mL); assay: as above; conditions: 72 h
[21] = system: NK-YS (IL-2 2.5 ng/mL); assay: as above; conditions: 72 h
[22] = system: NKL (IL-2 2.5 ng/mL); assay: as above; conditions: 72 h
[23] = system: SNK-6 (IL-2 2.5 ng/mL); assay: as above; conditions: 72 h
[24] = system: YT (IL-2 2.5 ng/mL); assay: as above; conditions: 72 h
[25] = system: normal primary NK cells, pool 1 (3 donors) (IL-2 2.5 ng/mL); assay: as above; conditions: 72 h
[26] = system: normal primary NK cells, pool 1 (3 donors), resting (IL-2 0 ng/mL); assay: as above; conditions: 72 h
[27] = system: normal primary NK cells, pool 2 (3 donors) (IL-2 2.5 ng/mL); assay: as above; conditions: 72 h
[28] = system: normal primary NK cells, pool 3 (3 donors) (IL-2 2.5 ng/mL); assay: as above; conditions: 72 h

Cc1cc2c(F)c(Oc3ncnn4cc(OC[C@@H](C)O)c(C)c34)ccc2[nH]1 [Brivanib] (max concentration tested 1000 nM)
percent inhibition of viability [%]
Conditions | 0.1 nM | 1 nM | 10 nM | 100 nM | 1000 nM
[1] | 0.76 | -1.44 | 1.84 | -3.64 | -2.22
[2] | 0.94 | 7.48 | -2.36 | 3.07 | -1.62
[3] | -8.23 | -2.37 | -10.1 | -3.91 | -8.67
[4] | -2.86 | 1.99 | -5.53 | -0.99 | -2.38
[5] | -4.66 | -2.28 | -3.77 | -3.68 | -5.25
[6] | -10.1 | -9.6 | -3.98 | -10.2 | -5.2
[7] | -2 | -5.08 | -6.17 | 0.88 | 13.4
[8] | -11.2 | -9.83 | -21.6 | -12.1 | -10.2
[9] | 5.84 | -0.07 | 3.56 | 8.94 | 4.87
[10] | -2.1 | -2.63 | -1.47 | -0.95 | -3.56
[11] | -8.41 | -6.09 | 4.52 | -3.63 | -4.56
[12] | -11.7 | -6.81 | 7.63 | -9.3 | -5.72
[13] | -6.73 | -10 | -9.37 | -10.3 | -8.25
[14] | -9.42 | -10.1 | -12.4 | -11 | -7.07

Conditions | drug sensitivity score
[15] | 0
[16] | 0
[17] | 0
[18] | 0
[19] | 0
[20] | 0
[21] | 0.18
[22] | 0
[23] | 0
[24] | 0
[25] | 0
[26] | 0
[27] | 0
[28] | 0

O=C(O)CCCc1ccc(N(CCCl)CCCl)cc1 [Chlorambucil] (max concentration tested 10000 nM)
percent inhibition of viability [%]
Conditions | 1 nM | 10 nM | 100 nM | 1000 nM | 10000 nM
[1] | -0.47 | -10 | -5.18 | -1.85 | 46.2
[2] | -3.58 | -2.26 | -1.57 | 2.26 | 35.3
[3] | -7.26 | -1.26 | -5.09 | -7.21 | 20.6
[4] | -12.3 | 0 | 13 | 21.6 | 84.8
[5] | -4.53 | -1.14 | -2.99 | -0.01 | 59
[6] | -16.2 | -10.6 | -3.93 | -0.43 | 69.5
[7] | -6.87 | -0.61 | 3.17 | 13.6 | 84.7
[8] | -13 | -7.71 | -6.04 | 27.6 | 92.1
[9] | 9.02 | 25.1 | -1.14 | 10.8 | 92.4
[10] | -0.58 | -2.33 | -2.72 | -5.92 | 9.19
[11] | -5.48 | -9.5 | 0.36 | 3.15 | 70.4
[12] | -14.6 | -7.61 | 2.57 | 19.2 | 88.2
[13] | -11.7 | -6.52 | -4.85 | 1.94 | 69.2
[14] | -13.1 | -5.69 | -6.16 | -0.15 | 53

Conditions | drug sensitivity score
[15] | 2.23
[16] | 2
[17] | 0.4
[18] | 7.66
[19] | 3.19
[20] | 3.79
[21] | 6.96
[22] | 9.13
[23] | 6.91
[24] | 0
[25] | 4.31
[26] | 7.95
[27] | 4.06
[28] | 2.81
